Measured values: patent US20240058251A1, “Composition for Oral Cavity” (SUNSTAR SUISSE SA, priority 2020, published 2024)

System: Streptococcus oralis spp. tigurinus
Assay: S. oralis culture test (Alamar Blue fluorescence; proliferation rate relative to a control containing no sample solution)
Type: cell-based
Protocol: S. oralis was cultured in BHI medium (Brain Heart Infusion broth (manufactured by BD)). After the turbidity of the medium at a wavelength of 660 nm was measured, the culture solution was diluted with BHI medium until the turbidity was 0.1. The diluted medium was used as a bacterial solution. As S. oralis, Streptococcus oralis spp. tigurinus was used.
Sample solutions of Examples and Comparative Examples were prepared by dissolving an amino acid and a sugar in the BHI medium. The concentrations of the amino acid in the sample solutions were set at 0 mg/ml or 15 mg/ml and the concentrations of the sugar were set at 20 mg/ml.
To the wells of a 96-well plate, the bacterial solution (100 μl) and a sample solution (100 μl) were added. The 96-well plate was subjected to culturing performed at 37° C. in anaerobic conditions for 24 hours. After completion of the culture, the supernatant was removed and 110 μl of an Alamar Blue solution (manufactured by Invitrogen) diluted 11-fold with phosphate buffer saline (PBS), was added. Fluorescence intensity was measured at an excitation wavelength of 545 nm and a fluorescence wavelength of 590 nm. A relative value thereof to the fluorescence intensity of a control containing no sample solution was calculated as the proliferation rate of S. oralis. The proliferation rate calculated was evaluated based on the following evaluation criteria. The results are shown in Table 1. • A: 10 or more • B: 5 or more and less than 10 • C: less than 5 […]
The proliferation rate of S. oralis in the case in which galactose was used as the sugar and citrulline was used as the amino acid, was measured. The test method was the same as in Test 1. The concentrations of galactose and citrulline in sample solutions and the measurement results of proliferation rates are shown in Table 3. In Test 3, the concentrations of galactose in sample solutions were set at 0 mg/ml or 2 mg/ml and the concentrations of citrulline were set at 0.5 to 3.0 mg/ml.
The proliferation rate of S. oralis was measured in the case in which 2′-fucosyllactose was used as the sugar and arginine was used as the amino acid. The test method was the same as in Test 1. The concentrations of 2′-fucosyllactose and arginine in sample solutions and the measurement results of proliferation rates are shown in Table 4. […]

## NC(=O)NCCC[C@H](N)C(=O)O [Comparative Example 8, Citrulline]
Test 3, citrulline 0.5 to 3.0 mg/ml, galactose 0 or 2 mg/ml
  Effect of promoting proliferation of S. oralis (in words): the effect of proliferating S. oralis was promoted but the level of the proliferation promotion effect decreased as the concentration of citrulline increased
Test 3, galactose 0 mg/ml, citrulline 0.5 mg/ml
  Proliferation rate: 3.8
Test 3, galactose 0 mg/ml, citrulline 1.0 mg/ml
  Proliferation rate: 2.7
Test 3, galactose 0 mg/ml, citrulline 2.0 mg/ml
  Proliferation rate: 1.8

## N=C(N)NCCC[C@H](N)C(=O)O [Comparative Example 1, Arginine]
Test 1
  Effect of promoting proliferation of S. oralis (in words): not obtained
Test 1, sample solution in BHI medium: sugar 20 mg/ml, amino acid 0 or 15 mg/ml, 37° C., anaerobic, 24 hours
  Evaluation of proliferation rate: C (less than 5)

## C[C@@H]1O[C@@H](O[C@H]2[C@H](O[C@H]3[C@H](O)[C@@H](O)C(O)O[C@@H]3CO)O[C@H](CO)[C@H](O)[C@@H]2O)[C@@H](O)[C@H](O)[C@@H]1O (some centres unmarked) [Comparative Example 9, 2′-Fucosyllactose]
Test 4, 2′-fucosyllactose 1 mg/ml, arginine 0 mg/ml
  Proliferation rate: 1.0
Test 4, 2′-fucosyllactose 2 mg/ml, arginine 0 mg/ml
  Proliferation rate: 1.5
Test 4, 2′-fucosyllactose 3 mg/ml, arginine 0 mg/ml
  Proliferation rate: 0.9
Test 4, 2′-fucosyllactose 4 mg/ml, arginine 0 mg/ml
  Proliferation rate: 0.6
Test 4, 2′-fucosyllactose 1 to 4 mg/ml, arginine 0 or 1.5 mg/ml
  Effect of promoting proliferation of S. oralis (in words): scarcely observed
